The test system of the assay is C. albicans. Put plainly: In vitro antifungal susceptibility testing (MIC), soyabean casein digest broth. The assay is classed as cell-based. The conditions noted are these: Candida albicans, reference standard, end points after 48 hours, read-out: minimum inhibitory concentration. The protocol: In vitro evaluation of antifungal activity can be performed by determining the minimum inhibitory concentration.
Anti-fungal susceptibility testing of these anti-fungal compounds was done by conventional method using soyabean casein digest broth. Known anti-fungal agents like Fluconazole and amphotericin-B were used as positive Control. End points were determined after 48 hours visually and by using Spectrophotometer wherever necessary. Different dilutions were tried and the set of experiments where repeated to confirm the end points. Standard cultures of Candida, Aspergillus and Fusarium were used for screening of these drugs.
Substituents and In-Vitro Anti-Fungal Activity (C. albicans) of the Compounds Expressed as MIC* (μg/ml). Reference Standard (RS) Fluconazole.

The structures appear in SMILES notation.

For `OC(Cn1cncn1)(Cn1cncn1)c1ccc(F)cc1F` [Fluconazole], the MIC is under 3.12 µg/mL.
